Laboratory results published in US20050106100A1, “Compounds containing matrix metalloproteinase substrates and methods of their use” (priority 2003, published 2005).

Key:
[1] = test system: Aminopeptidase N; assay: Aminopeptidase N cleavage of test substrates (HPLC); assay type: biochemical; conditions: 1 mM test substrate, 0.02 U APN, 37° C., 25 minutes
Procedure: Aminopeptidase N cleaves amino acids at the N-terminus of proteins and peptides attached to another amino acid. The final attachment in our test substrates consists of an amino acid linked to a hydrazide. The cleavage of this amino acid by aminopeptidases exposes the reactive hydrazide species. Our goal was to study the cleavage of amide bond between an amino acid and a hydrazide by aminopeptidase N. A stock solution of test substrates was prepared in 100% DMSO at a concentration of 25 mM. The stock soluton (6 μL) was added to buffer (50 mM Hepes/pH 7.5, 10 mM CaCl2, 0.1% Brij) for a final concentration of 1 mM test substrate in the reaction. To this reaction mix 0.02 U of the enzyme (APN) was added, the solution was mixed, and immediately 67.5 μL of the mix was transferred to HPLC vials containing 33.2 μL of acetic acid for t=0 minute measurement. The rest of the mix in the test tube was incubated at 37° C. for 25 minutes. At the 25 minutes time point 67.5 μL of the mix was transferred to the HPLC vial containing 33.2 μl of acetic acid for t=25 minute measurement. […] The peak areas were integrated and the substrate peak area was used to determine rate constant k in the following equation: K={(% hydrolyzed/100)*[S]}/[E]*[time] where • S=test substrate concentration in μmoles • E=aminopeptidase N concentration in units/ml • K=μmoles of substrate hydrolyzed/minute/unit enzyme
The procedures of Examples 63 and 64 were used to prepare these additional enamides. The ability of aminopeptidase-N (APN) to remove the terminal amino acid was determined by using the procedure described in Example 46.

[2] = test system: THP-1 cells; assay: Lipid bilayer insertion / cell binding of test substrates; assay type: cell-based, human; conditions: live cell suspensions
Procedure: This assay was designed to study localization of test substrates in lipid bilayers of cells. THP-1 cell line a human monocytic cell line was used in this assay. THP-1 cells were washed with phosphate buffered saline (PBS) and 2×10^6 cells were used for each reaction in a 150 μL reaction volume. Test substrates were added to these cell suspensions to give a final concentration of 0.15 mM in the reaction. The reactions were incubated at 37° C. for 1 hour. The test compound in the supernatant was analyzed by HPLC and quantified. The level of compound in the supernatant in the presence and absence of cells was determined and the following ratio was generated: R=Level of compound in absence of cells/level of compound in the presence of cells
The ratio increases with increased binding to cells. A ratio of 1 denotes no binding to cells.

[3] = test system: Aminopeptidase N; assay: Aminopeptidase N cleavage of test substrates (HPLC); assay type: biochemical; conditions: n = 2; for Rate, hydrolysis of N-terminal residue by APN (value in parenthesis): enzyme concentration […] 10^3 U; for Rate, hydrolysis of N-terminal residue by APN: enzyme concentration […] 10^4 U

Structure (SMILES) | Rate of hydrolysis (min^−1, U^−1) [1] | Rate, hydrolysis of N-terminal residue by APN (value in parenthesis) [3] | Rate, hydrolysis of N-terminal residue by APN [3] | further results
CC(C)C[C@H](N)C(=O)NNc1ccc(C(=O)NCCNC(=O)c2ccc(N/N=C/c3ccccc3S(=O)(=O)O)nc2)cc1 [Example 6, 2-{(1E)-2-[(5-{N-[2-({4-[((2S)-2-Amino-4-methylpentanoylamino)amino]phenyl}carbonylamino)ethyl]carbamoyl}(2-pyridyl))amino]-2-azavinyl}benzenesulfonic Acid] | 0 μmoles μmoles (min^−1, U^−1) |  |  | 
CC(C)C[C@H](N)C(=O)NNC(=O)c1ccc(N/N=C\c2ccccc2S(=O)(=O)O)nc1 [Example 7, 2-[2-({5-[N-((2S)-2-Amino-4-methylpentanoylamino)carbamoyl](2-pyridyl)}amino)(1Z)-2-azavinyl]benzenesulfonic Acid] | 1.2 μmoles μmoles (min^−1, U^−1) |  |  | 
CC(C)C[C@H](N)C(=O)NNC(=O)c1ccc(CNC(=O)c2ccc(N/N=C/c3ccccc3S(=O)(=O)O)nc2)cc1 [Example 8, 2-[(1E)-2-({5-[N-({4-[N-((2S)-2-Amino-4-methylpentanoylamino)carbamoyl]phenyl}methyl)carbamoyl](2-pyridyl)}amino)-2-azavinyl]benzenesulfonic Acid] | 0.6 μmoles μmoles (min^−1, U^−1) |  |  | 
COc1ccc2cc(C(=O)NCCCCCC(=O)NNC(=O)[C@@H](N)CC(C)C)c(=O)oc2c1 [Example 9, N-((2S)-2-Amino-4-methylpentanoylamino)-6-[(7-methoxy-2-oxo(2H-chromen-3-yl))carbonylamino]hexanamide] | 0.62 μmoles μmoles (min^−1, U^−1) |  |  | 
CC(C)C[C@H](N)C(=O)Nc1ccc(COC(=O)NNC(=O)CCCCCNC(=O)c2ccc(N/N=C/c3ccccc3S(=O)(=O)O)nc2)cc1 [Example 24, 2-((1E)-2-{[5-(N-{5-[N-({[4-((2S)-2-Smino-4-methylpentanoylamino)phenyl]methoxy}carbonylamino)carbamoyl]pentyl}carbamoyl)(2-pyridyl)]amino}-2-azavinyl)benzenesulfonic Acid] | 0.52 μmoles μmoles (min^−1, U^−1) |  |  | 
O=C(CCCCCCCc1ccc(O)cc1)NCCNC(=O)c1ccc(N/N=C/c2ccccc2S(=O)(=O)O)nc1 [Example 26, 2-((1E)-2-Aza-2-{[5-(N-{2-[8-(4-hydroxyphenyl)octanoylamino]ethyl}-carbamoyl)(2-pyridyl)]amino}vinyl)benzenesulfonic Acid] |  |  |  | association with cells (in words) [2]: will associate with cells
CC(=O)NCCCCCC/C=C/NC(=O)[C@@H](N)CC(C)C.O=CO [Example 63, N-[(1E)-8-(Acetylamino)oct-1-enyl](2S)-2-amino-4-methylpentanamide, Formic Acid Salt] |  | 0.167 mmol substrate · min^−1 · U enzym^−1 | 0.202 mmol substrate · min^−1 · U enzym^−1 | 
CCC/C=C(\CCC)NC(=O)[C@H](C)NC(=O)[C@@H](N)CC(C)C [Example 332] |  | 0.802 mmol substrate · min^−1 · U enzym^−1 | 1.89 mmol substrate · min^−1 · U enzym^−1 | 
CCC/C=C(\CCC)NC(=O)[C@@H](N)CC(C)C [Example 333] |  | 0.209 mmol substrate · min^−1 · U enzym^−1 | 0.264 mmol substrate · min^−1 · U enzym^−1 | 
